Source: patent US20150182745A1, “IONTOPHORETIC DEVICE FOR DOSAGING OF AN ACTIVE INGREDIENT” (NOVAGENT OY, priority 2012, published 2015)

Assays:
[1] = swine
Text: The invention is further described more in detail by the following examples. In the examples a device according to FIG. 2 was used. The electrodes are made of a carbon fiber textile, onto which a hydrophobic micro-porous layer of teflon is fitted. As model agent was used tacrine, which is a cationic drug. The chamber section 13a, the electrolyte space, comprised a 0.15 M aqueous solution of sodium sulphate and the chamber section 13b, the space comprising the active agent, comprised a 0.15 M aqueous solution of sodium chloride, which corresponds to a physiological salt solution. […] The membrane 15 was either a synthetic membrane (UC 101T) or swine skin. In the experiments were used Smopex®-ion exchanging fibres, made by Smoptech (Johnson Matthey).

[2] = in vivo; cited from earlier work

passive flow [1]: 1.99 μg cm^−2h^−1 | passive flow (slope) [1]: 1.81 μg cm^−2h^−1
Compound: Nc1c2c(nc3ccccc13)CCCC2 [tacrine]
clearance CL [2]: 150 dm^3h^−1 | therapeutic window [2]: 5-30 μg dm^−3
